Legend:
Assay type in all cases: in vivo
[1] = tested on: giant foxtail (Setaria faberii); assay: Test A preemergence; conditions: for Plant response rating, Foxtail, Giant: 125 g ai/ha, preemergence, 0 to 100 scale (0 no effect, 100 complete control); for Foxtail, Giant plant response rating (0 to 100 scale, 0 is no effect, 100 is complete control): Preemergence, 500 g ai/ha, visual injury approx. 10 d
How it was run: (§1)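 Seeds sprayed preemergence with a directed soil spray, or plants at 2 to 10 cm height and one- to two-leaf stage sprayed postemergence, with test chemicals in a non-phytotoxic solvent mixture containing surfactant, in loam soil–sand blend. Injury rated visually against untreated controls after about 10 d in greenhouse, 0 (no effect) to 100 (complete control).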

[2] = tested on: barnyardgrass (Echinochloa crus-galli); assay: Test A preemergence; conditions: for Plant response rating, Barnyardgrass: 125 g ai/ha, preemergence, 0 to 100 scale (0 no effect, 100 complete control); for Barnyardgrass plant response rating (0 to 100 scale, 0 is no effect, 100 is complete control): Preemergence, 500 g ai/ha, visual injury approx. 10 d
How it was run: as §1

[3] = tested on: ryegrass, Italian (Italian ryegrass, Lolium multiflorum); assay: Test A preemergence; conditions: for Plant response rating, Ryegrass, Italian: 125 g ai/ha; for Ryegrass, Italian plant response rating (0 to 100 scale, 0 is no effect, 100 is complete control): 500 g ai/ha, visual injury approx. 10 d
How it was run: as §1

[4] = tested on: ragweed (common ragweed, Ambrosia elatior); assay: Test A preemergence; conditions: for Plant response rating, Ragweed: 125 g ai/ha
How it was run: as §1

Kochia (Kochia scoparia) [5] = assay: Test A preemergence; conditions: for Plant response rating, Kochia: 125 g ai/ha, preemergence, 0 to 100 scale (0 no effect, 100 complete control); for Kochia plant response rating (0 to 100 scale, 0 is no effect, 100 is complete control): Preemergence, 500 g ai/ha, visual injury approx. 10 d
How it was run: as §1

[6] = tested on: pigweed (Amaranthus retroflexus); assay: Test A preemergence; conditions: for Plant response rating, Pigweed: 125 g ai/ha; for Pigweed plant response rating (0 to 100 scale, 0 is no effect, 100 is complete control): 500 g ai/ha, visual injury approx. 10 d
[7] = tested on: barnyardgrass (Echinochloa crus-galli); assay: Test B flooded paddy test; conditions: Flood, 250 g ai/ha; 0 to 100 scale where 0 is no effect and 100 is complete control; 13 to 15 d
How it was run: (§2)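 Evaluation by eye, against controls, occurred 13–15 d post-treatment in a greenhouse, using a 0 (no effect) to 100 (complete control) scale. Application was into the paddy water, 3 cm deep over the soil, on 2-leaf plants.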

[8] = tested on: sedge, umbrella (small-flower umbrella sedge, Cyperus difformis); assay: Test B flooded paddy test; conditions: Flood, 250 g ai/ha; 0 to 100 scale where 0 is no effect and 100 is complete control; 13 to 15 d
How it was run: as §2

rice (Oryra sativa) = assay: Test B flooded paddy test; conditions: Flood, 250 g ai/ha; 0 to 100 scale where 0 is no effect and 100 is complete control; 13 to 15 d
How it was run: as §2

[9] = tested on: ducksalad (Heteranthera limosa); assay: Test B flooded paddy test; conditions: Flood, 250 g ai/ha; 0 to 100 scale where 0 is no effect and 100 is complete control; 13 to 15 d
How it was run: as §2

[10] = tested on: giant foxtail (Setaria faberii); assay: Test A postemergence; conditions: for Foxtail, Giant plant response rating: 125 g ai/ha, visual injury rating on 0 to 100 scale (0 no effect, 100 complete control), approx. 10 d; for Plant response rating, Foxtail, Giant: 500 g ai/ha
How it was run: as §1

[11] = tested on: barnyardgrass (Echinochloa crus-galli); assay: Test A postemergence; conditions: postemergence; for Barnyardgrass plant response rating: 125 g ai/ha, visual injury rating on 0 to 100 scale (0 no effect, 100 complete control), approx. 10 d; for Plant response rating, Barnyardgrass: 500 g ai/ha, 0 to 100 scale, 0 no effect, 100 complete control
How it was run: as §1

[12] = tested on: ryegrass, Italian (Italian ryegrass, Lolium multiflorum); assay: Test A postemergence; conditions: for Ryegrass, Italian plant response rating: 125 g ai/ha, visual injury rating on 0 to 100 scale (0 no effect, 100 complete control), approx. 10 d; for Plant response rating, Ryegrass, Italian: 500 g ai/ha
How it was run: as §1

[13] = tested on: blackgrass (Alopecurus myosuroides); assay: Test A postemergence; conditions: postemergence; for Blackgrass plant response rating: 125 g ai/ha, visual injury rating on 0 to 100 scale (0 no effect, 100 complete control), approx. 10 d; for Plant response rating, Blackgrass: 500 g ai/ha, 0 to 100 scale, 0 no effect, 100 complete control
How it was run: as §1

[14] = tested on: Galium (catchweed bedstraw, Galium aparine); assay: Test A postemergence; conditions: for Galium plant response rating: 125 g ai/ha, visual injury rating on 0 to 100 scale (0 no effect, 100 complete control), approx. 10 d; for Plant response rating, Galium: 500 g ai/ha
How it was run: as §1

[15] = tested on: ragweed (common ragweed, Ambrosia elatior); assay: Test A postemergence; conditions: for Ragweed plant response rating: 125 g ai/ha, visual injury rating on 0 to 100 scale (0 no effect, 100 complete control), approx. 10 d; for Plant response rating, Ragweed: 500 g ai/ha
How it was run: as §1

Kochia (Kochia scoparia) [16] = assay: Test A postemergence; conditions: for Kochia plant response rating: 125 g ai/ha, visual injury rating on 0 to 100 scale (0 no effect, 100 complete control), approx. 10 d; for Plant response rating, Kochia: 500 g ai/ha
How it was run: as §1

[17] = tested on: pigweed (Amaranthus retroflexus); assay: Test A postemergence; conditions: for Pigweed plant response rating: 125 g ai/ha, visual injury rating on 0 to 100 scale (0 no effect, 100 complete control), approx. 10 d; for Plant response rating, Pigweed: 500 g ai/ha
How it was run: as §1

[18] = tested on: wheat (Triticum aestivum); assay: Test A postemergence; conditions: for Wheat plant response rating: 125 g ai/ha, visual injury rating on 0 to 100 scale (0 no effect, 100 complete control), approx. 10 d; for Plant response rating, Wheat: 500 g ai/ha
How it was run: as §1

corn (Zea mays) = assay: Test A postemergence; conditions: postemergence; for Corn plant response rating: 125 g ai/ha, visual injury rating on 0 to 100 scale (0 no effect, 100 complete control), approx. 10 d; for Plant response rating, Corn: 500 g ai/ha, 0 to 100 scale, 0 no effect, 100 complete control
How it was run: as §1

[19] = preemergence, 0 to 100 scale (0 no effect, 100 complete control)
[20] = postemergence, 0 to 100 scale, 0 no effect, 100 complete control
[21] = Preemergence, visual injury after approximately 10 d, 0 to 100 scale where 0 is no effect and 100 is complete control
[22] = Postemergence, 0 to 100 scale where 0 is no effect and 100 is complete control

What does the source list for `O=C1NCC(c2cccc(C#Cc3ccccc3)c2)C1C(=O)Nc1cccc(F)c1F` (centres unmarked) [Compound 451]?
Plant response rating, Foxtail, Giant [1]: 0; Foxtail, Giant plant response rating (0 to 100 scale, 0 is no effect, 100 is complete control) [1]: 0; Plant response rating, Barnyardgrass [2]: 0; Barnyardgrass plant response rating (0 to 100 scale, 0 is no effect, 100 is complete control) [2]: 0; Plant response rating, Ryegrass, Italian [3, 19]: 0; Ryegrass, Italian plant response rating (0 to 100 scale, 0 is no effect, 100 is complete control) ([3]; Preemergence): 0; Plant response rating, Ragweed [4, 19]: 0; Ragweed plant response rating (0 to 100 scale, 0 is no effect, 100 is complete control) ([4]; Preemergence, 500 g ai/ha, visual injury approx. 10 d): 0; Plant response rating, Kochia (Kochia (Kochia scoparia) [5]): 0; Kochia plant response rating (0 to 100 scale, 0 is no effect, 100 is complete control) (Kochia (Kochia scoparia) [5]): 0; Plant response rating, Pigweed [6, 19]: 0; Pigweed plant response rating (0 to 100 scale, 0 is no effect, 100 is complete control) ([6]; Preemergence): 0; Plant response rating, Barnyardgrass [7]: 0; Plant response rating, Sedge, Umbrella [8]: 0; Plant response rating, Rice (rice (Oryra sativa)): 0; Plant response rating, Ducksalad [9]: 0; Foxtail, Giant plant response rating ([10]; postemergence): 0; Plant response rating, Foxtail, Giant [10, 20]: 0; Barnyardgrass plant response rating [11]: 0; Plant response rating, Barnyardgrass [11]: 0; Ryegrass, Italian plant response rating ([12]; postemergence): 0; Plant response rating, Ryegrass, Italian [12, 20]: 0; Blackgrass plant response rating [13]: 0; Plant response rating, Blackgrass [13]: 0; Galium plant response rating ([14]; postemergence): 0; Plant response rating, Galium [14, 20]: 0; Ragweed plant response rating ([15]; postemergence): 0; Plant response rating, Ragweed [15, 20]: 0; Kochia plant response rating (Kochia (Kochia scoparia) [16]; postemergence): 0; Plant response rating, Kochia (Kochia (Kochia scoparia) [16]; [20]): 0; Pigweed plant response rating ([17]; postemergence): 0; Plant response rating, Pigweed [17, 20]: 0; Wheat plant response rating ([18]; postemergence): 0; Plant response rating, Wheat [18, 20]: 0; Corn plant response rating (corn (Zea mays)): 0; Plant response rating, Corn (corn (Zea mays)): 0

What does the source list for `CC(C)c1ccc(C2CNC(=O)C2C(=O)Nc2cccc(F)c2F)cc1` (centres unmarked) [Compound 470]?
Plant response rating, Foxtail, Giant [1]: 90; Foxtail, Giant plant response rating (0 to 100 scale, 0 is no effect, 100 is complete control) [1]: 90; Plant response rating, Barnyardgrass [2]: 90; Barnyardgrass plant response rating (0 to 100 scale, 0 is no effect, 100 is complete control) [2]: 90; Plant response rating, Ryegrass, Italian [3, 21]: 0; Ryegrass, Italian plant response rating (0 to 100 scale, 0 is no effect, 100 is complete control) ([3]; Preemergence): 30; Plant response rating, Ragweed [4, 21]: 0; Plant response rating, Kochia (Kochia (Kochia scoparia) [5]): 70; Kochia plant response rating (0 to 100 scale, 0 is no effect, 100 is complete control) (Kochia (Kochia scoparia) [5]): 40; Plant response rating, Pigweed [6, 21]: 0; Pigweed plant response rating (0 to 100 scale, 0 is no effect, 100 is complete control) ([6]; Preemergence): 20; Plant response rating, Barnyardgrass [7]: 0; Plant response rating, Sedge, Umbrella [8]: 0; Plant response rating, Rice (rice (Oryra sativa)): 0; Plant response rating, Ducksalad [9]: 85; Foxtail, Giant plant response rating ([10]; postemergence): 40; Plant response rating, Foxtail, Giant [10, 22]: 80; Barnyardgrass plant response rating [11]: 60; Plant response rating, Barnyardgrass [11]: 70; Ryegrass, Italian plant response rating ([12]; postemergence): 0; Plant response rating, Ryegrass, Italian [12, 22]: 20; Blackgrass plant response rating [13]: 30; Plant response rating, Blackgrass [13]: 50; Galium plant response rating ([14]; postemergence): 0; Plant response rating, Galium [14, 22]: 0; Ragweed plant response rating ([15]; postemergence): 0; Plant response rating, Ragweed [15, 22]: 0; Kochia plant response rating (Kochia (Kochia scoparia) [16]; postemergence): 0; Plant response rating, Kochia (Kochia (Kochia scoparia) [16]; [22]): 0; Pigweed plant response rating ([17]; postemergence): 0; Plant response rating, Pigweed [17, 22]: 0; Wheat plant response rating ([18]; postemergence): 0; Plant response rating, Wheat [18, 22]: 0; Corn plant response rating (corn (Zea mays)): 0; Plant response rating, Corn (corn (Zea mays)): 0
